Measured values published in ChEMBL document CHEMBL4477227, “Synthesis and antibacterial evaluation of macrocyclic diarylheptanoid derivatives” (Bioorg Med Chem Lett, 2016).
≈ marks a conversion by molar mass, not a printed value.

Assays:
[1] = tested on: Staphylococcus aureus; assay: Antibacterial activity against methicillin-resistant Staphylococcus aureus NRS70 by microbroth dilution method; type: functional; conditions: Staphylococcus aureus, NRS70; read-out: MIC
[2] = tested on: Bacillus anthracis; assay: Antibacterial activity against Bacillus anthracis Sterne 34F2 by microbroth dilution method; type: functional; conditions: Bacillus anthracis, Sterne 34F2; read-out: MIC
[3] = tested on: Escherichia coli; assay: Antibacterial activity against Escherichia coli harboring TolC deletion mutant by microbroth dilution method; type: functional; conditions: Escherichia coli; read-out: MIC
[4] = tested on: Bacillus subtilis; assay: Antibacterial activity against Bacillus subtilis ATCC 23857 by microbroth dilution method; type: functional; conditions: Bacillus subtilis, ATCC 23857; read-out: MIC
[5] = tested on: Klebsiella pneumoniae; assay: Antibacterial activity against Klebsiella pneumoniae ATCC 33495 by microbroth dilution method; type: functional
[6] = tested on: Acinetobacter baumannii; assay: Antibacterial activity against Acinetobacter baumannii ATCC 19606 by microbroth dilution method; type: functional, ATCC 19606 = CIP 70.34 = JCM 6841; conditions: Acinetobacter baumannii, ATCC 19606 = CIP 70.34 = JCM 6841; read-out: MIC
[7] = tested on: Mycobacterium tuberculosis; assay: Antitubercular activity against Mycobacterium tuberculosis H37Rv by microbroth dilution method; type: functional; conditions: Mycobacterium tuberculosis, H37Rv; read-out: MIC
[8] = tested on: Pseudomonas aeruginosa; assay: Antibacterial activity against Pseudomonas aeruginosa PAO1 by microbroth dilution method; type: functional
[9] = tested on: Staphylococcus aureus; assay: Antibacterial activity against methicillin-sensitive Staphylococcus aureus ATCC 29213 by microbroth dilution method; type: functional; conditions: Staphylococcus aureus, ATCC 29213; read-out: MIC
[10] = tested on: Enterococcus faecalis; assay: Antibacterial activity against Enterococcus faecalis ATCC 33186 by microbroth dilution method; type: functional; conditions: Enterococcus faecalis, ATCC 33186; read-out: MIC
[11] = tested on: Proteus vulgaris; assay: Antibacterial activity against Proteus vulgaris ATCC 33420 by microbroth dilution method; type: functional
[12] = tested on: Streptococcus pneumoniae; assay: Antibacterial activity against Streptococcus pneumoniae R6 by microbroth dilution method; type: functional; conditions: Streptococcus pneumoniae, R6; read-out: MIC
[13] = tested on: Proteus mirabilis; assay: Antibacterial activity against Proteus mirabilis ATCC 25933 by microbroth dilution method; type: functional
[14] = tested on: Streptococcus pyogenes; assay: Antibacterial activity against Streptococcus pyogenes ATCC 700294 by microbroth dilution method; type: functional; conditions: Streptococcus pyogenes, ATCC 700294; read-out: MIC
[15] = tested on: Escherichia coli; assay: Antibacterial activity against Escherichia coli K-12 by microbroth dilution method; type: functional
[16] = tested on: Burkholderia cepacia; assay: Antibacterial activity against Burkholderia cepacia ATCC 25416 by microbroth dilution method; type: functional

Row | Structure (SMILES) | MIC [1] [µg/mL] | MIC [2] [µg/mL] | MIC [3] [µg/mL] | MIC [4] [µg/mL] | MIC [5] [µg/mL] | MIC [6] [µg/mL] | MIC [7] [µg/mL] | MIC [8] [µg/mL] | MIC [9] [µg/mL] | MIC [10] [µg/mL] | MIC [11] [µg/mL] | MIC [12] [µg/mL] | MIC [13] [µg/mL] | MIC [14] [µg/mL] | MIC [15] [µg/mL] | MIC [16] [µg/mL]
1 | COc1ccc(CCNC2CCCCc3ccc(OC)c(c3)Oc3cc(ccc3OC)CC2)cc1OC (centres undefined) | > 100 | > 100 | > 100 | > 100 | > 100 | > 100 | 100 (≈ 198 µM) | > 100 | > 100 | > 100 | > 100 | > 100 | > 100 | > 100 | > 100 | > 100
2 | COc1ccc2cc1Oc1cc(ccc1OC)CCC(NCCc1ccccn1)CCCC2 (centres undefined) | > 100 | > 100 | 100 (≈ 224 µM) | 100 (≈ 224 µM) | > 100 | > 100 | 100 (≈ 224 µM) | > 100 | > 100 | > 100 | > 100 | 100 (≈ 224 µM) | > 100 | > 100 | > 100 | > 100
3 | COc1ccc2cc1Oc1cc(ccc1OC)CCC(NC(=O)CCc1ccccc1)CCCC2 (centres undefined) | > 100 | > 100 | > 100 | > 100 | > 100 | > 100 | > 100 | > 100 | > 100 | > 100 | > 100 | > 100 | > 100 | > 100 | > 100 | > 100
4 | COc1ccc2cc1Oc1cc(ccc1OC)CCC(NCCCc1ccccc1)CCCC2 (centres undefined) | 25 (≈ 54.4 µM) | 50 (≈ 109 µM) | 12.5 (≈ 27.2 µM) | 25 (≈ 54.4 µM) | > 100 | 50 (≈ 109 µM) | 50 (≈ 109 µM) | > 100 | 25 (≈ 54.4 µM) | 25 (≈ 54.4 µM) | > 100 | 50 (≈ 109 µM) | > 100 | 50 (≈ 109 µM) | > 100 | > 100
5 | CCN(CC)C1CCCCc2ccc(OC)c(c2)Oc2cc(ccc2OC)CC1 (centres undefined) | > 100 | > 100 | > 100 | > 100 | > 100 | > 100 | 100 (≈ 252 µM) | > 100 | > 100 | > 100 | > 100 | > 100 | > 100 | > 100 | > 100 | > 100
6 | COc1ccc2cc1Oc1cc(ccc1OC)CCC(NCCCCc1ccccc1)CCCC2 (centres undefined) | 25 (≈ 52.8 µM) | 50 (≈ 106 µM) | 12.5 (≈ 26.4 µM) | 12.5 (≈ 26.4 µM) | > 100 | 100 (≈ 211 µM) | 25 (≈ 52.8 µM) | > 100 | 25 (≈ 52.8 µM) | 25 (≈ 52.8 µM) | > 100 | 50 (≈ 106 µM) | > 100 | 12.5 (≈ 26.4 µM) | > 100 | > 100
7 | COc1ccc2cc1Oc1cc(ccc1OC)CCC(NC(=O)/C=C/c1ccc(F)cc1)CCCC2 (centres undefined) | > 100 | > 100 | > 100 | > 100 | > 100 | > 100 | > 100 | > 100 | > 100 | > 100 | > 100 | > 100 | > 100 | > 100 | > 100 | > 100
8 | COc1ccc2cc1Oc1cc(ccc1OC)CCC(OC(=O)NCCc1ccccc1)CCCC2 (centres undefined) | > 100 | > 100 | > 100 | > 100 | > 100 | > 100 | > 100 | > 100 | > 100 | > 100 | > 100 | > 100 | > 100 | > 100 | > 100 | > 100
9 | COc1ccc2cc1Oc1cc(ccc1OC)CCC(NC(=O)NCCc1ccccc1)CCCC2 (centres undefined) | > 100 | > 100 | > 100 | > 100 | > 100 | > 100 | > 100 | > 100 | > 100 | > 100 | > 100 | > 100 | > 100 | > 100 | > 100 | > 100
